Reference: patent US20210348171A1, “PHARMACOPROTEOMICS PLATFORM IDENTIFYING KINOME FEATURES REGULATING DRUG RESPONSE IN CANCER” (University of Washington, priority 2020, published 2021)

Columns and labels:
Assay type in all cases: cell-based, Human
SNU449 cells = assay: Inhibitor co-treatment growth inhibition (WZ4003 with AZD7762 or dinaciclib); settings: for dose dependence of the cotreatment effect: AZD7762 plus WZ4003; for decrease of EC50 on cotreatment with WZ4003: cotreatment with NUAK1/2 inhibitor WZ4003, 72 h, n=4
Description: To identify combinatorial treatment strategies targeting mesenchymal and drug resistant HCC cells, the next step was to analyze drug sensitivity pathways that become activated upon AXL and NUAK1/2 inhibition and EMT reversal. […] It was also observed increased cell cycle activity among epithelial lines in the 17 HCC line panel (FIG. 9B), that was accompanied by elevated activity of kinases promoting DDR signaling and cell survival under conditions of replication stress. For instance, activation of CHEK1 and 2 along with increased phosphorylation of ATR, CHEK1/2 and WEE1 substrates were observed (FIGS. 4A and 9C). Similarly, AXL RNAi in FOCUS cells activated the DDR kinases CHEK1 and WEE1, increasing phosphorylation of their substrates CDK11B and CDK2 (FIGS. 4B and 9D). […] It was reasoned, therefore, that combinatorial inhibition of AXL or NUAK1/2, as well as cell cycle checkpoint kinases could efficiently kill mesenchymal HCC cells (FIG. 4D). To test this strategy, the mesenchymal and drug resistant SNU449 line was cotreated with the selective NUAK1/2 inhibitor WZ4003 (Banerjee, S., et al. (2014). Characterization of WZ4003 and HTH-01-015 as selective inhibitors of the LKB1-tumour-suppressor-activated NUAK kinases. Biochem J 457, 215-225, incorporated herein by reference in its entirety) and the CHEK1/2 inhibitor AZD7762. Additionally, the CDK inhibitor dinaciclib was used to test if elevated, EMT state-dependent, cell cycle activity translates into increased efficacy of such drugs. […] These encouraging results led to establishment of SNU449 NUAK1 or NUAK2 RNAi cells (FIG. 9E). Gratifyingly, treating SNU449 NUAK RNAi cells and WT controls with varying doses of AZD7762 and dinaciclib recapitulated the drug co-treatment results (˜3- to 4-fold decrease in EC50s, FIG. 4H). To consolidate these findings, the FOCUS NUAK and AXL RNAi cell lines were tested against AZD7762 and dinaciclib. As in SNU449 cells, NUAK1/2 RNAi FOCUS cells were sensitized to kinase inhibition up to ˜5-fold (FIG. 4I).
1800 cells/well were seeded onto white flat bottom half area 96-well plates (Greiner Bio-One, Kremsmuenster, AT) in 50 μl of growth medium and allowed to attach in an incubator for 24 h. Then the drugs in DMSO and/or DMSO vehicle controls as 11× solutions in growth medium were added to a total volume of 55 μl and 0.1% DMSO final. The cells were grown in an incubator for another 72 h. Then, 55 μl of CellTiter-Glo 2.0 (Promega, Madison, Wis.) reagent/well were added according to the manufacturer's instructions and luminescence was quantified with a SpectraMax 190 plate reader (Molecular Devices, San Jose, Calif.). The CHEK1/2 inhibitor AZD7762 (Selleckchem, Houston, Tex.) and the NUAK1/2 inhibitor WZ4003 (Tocris Bioscience, Minneapolis, Minn.) were applied at 8 different concentrations between 10 μM and 4.6 nM (3-fold dilution steps) and Dinaciclib (Selleckchem) was applied at 8 different concentrations between 1 μM and 0.5 nM (3-fold dilution steps). Experiments were performed in four biological replicates. Growth inhibition curves were fitted using the GraphPad Prism software package (V5.0a) with a least-squares nonlinear regression model for curve fitting (One site-Fit log IC50 function).

[1] = system: FOCUS, SKHep1, SNU761 RNAi lines; assay: Drug synergy in AAK1, RALBP1, REPS1, REPS2 knockdown lines (Cell Titer Glo 2.0); settings: RNAi lines vs scramble control, 72 hours
Description: (1) Kinases and their interaction partners are depleted from cell lines using either small hairpin RNAs (shRNAs) or CRISPR/Cas9 knockout. […] This assay aims to discover drug synergies that may be exploited to develop novel combination therapies.
The next step was to assess the ability of an AAK1 knockdown to sensitize the cells to extant KI targeting therapeutics.

[2] = system: mesenchymal HCC cells with CAMK1D shRNAi knockdown; assay: Drug sensitization in CAMK1D knockdown lines (Cell Titer Glo 2.0); settings: RNAi lines vs scramble control, 72 hours
Description: The approach to validate the role AAK1 is represented schematically in FIG. 10A. As illustrated, the general workflow pipeline is to test the biological function of kinases and their interaction partners function in EMT and cancer therapy resistance. (1) Kinases and their interaction partners are depleted from cell lines using either small hairpin RNAs (shRNAs) or CRISPR/Cas9 knockout. (2) Effects of RNAi knockdown (KD) or CRISPR knockout (KO) are quantified on cellular signaling pathways using unbiased MS-based kinome-centric and global proteome and phosphoproteome profiling. (3) KD/KO effects on EMT state are studied by quantifying 12 well-known EMT and stemness markers such as CDH1, VIM, SNAI2 and TWIST1 using qPCR and western blotting. (4) KD/KO effects are confirmed/determined on cancer therapy resistance by treating KD/KO cell lines with 15 clinical and pre-clinical HCC drugs, quantifying cell viability using the Promega Cell Titer Glo 2.0 assay. […] (5) KD/KO effects are measured on cell migration and invasion by conducting trans-well migration and wound scratch assays. […]
Further analyses of CAMK1D were conducted to further investigate its role in EMT and potential therapeutic target. […] Phosphoproteins were quantified using global MS-based phosphoproteomics according to our previously published protocol. […]

Structure (SMILES) | dose dependence of the cotreatment effect (SNU449 cells) | decrease of EC50 on cotreatment with WZ4003 (SNU449 cells) | effect of knockdown of AAK1 and interaction partners on drug treatment [1] | effect of CAMK1D knockdown on drug treatment [2] | significance of the cotreatment effect at low WZ4003 (SNU449 cells; 1 μM of WZ4003 with AZD7762)
NC(=O)Nc1cc(-c2cccc(F)c2)sc1C(=O)N[C@H]1CCCNC1 [AZD7762] | dose-dependent | ~3 fold | sensitizes | sensitizes | 
O=c1[nH]c2ccc(Cl)cc2c(N[C@@H]2CN3CCC2CC3)c1-c1nc2ccccc2[nH]1 [CHIR-124] |  |  | sensitizes | sensitizes | 
CCC(=O)Nc1cccc(Oc2nc(Nc3ccc(N4CCN(C)CC4)cc3OC)ncc2Cl)c1 [WZ4003] | dose-dependent |  |  |  | still significant
CCc1cnn2c(NCc3ccc[n+]([O-])c3)cc(N3CCCC[C@H]3CCO)nc12 [dinaciclib, Dinaciclib] |  | ~2 fold |  |  | 
